Source: US9539257B2, “Method of treating cancer” (NOVARTIS AG, priority 2009, dated 2017)
Several values for one entry are separate records, joined by “and”; a condition that tells them apart may be missing. Equal values may be shown once. Read-outs that look alike come from different tables or passages of the source.

What was measured:
UGT1A1*28 = conditions: confirmation analysis, lapatinib plus letrozole arm
Procedure: Statistical analyses used for this investigation indicated the following. The two phenotypes that were evaluated were maximum on-treatment liver chemistry values for ALT and TBL with respect to the upper limit of normal. These phenotypes were evaluated in both case-control and quantitative trait analyses while key associations were examined qualitatively in the combined ALT/TBL cases. ALT and TBL cases were defined as maximum on-treatment elevations of ≧3×ULN and ≧1.5×ULN, respectively, and control subjects were defined as maximum on-treatment ALT or TBL of ≦1×ULN. […] Approximately 370 patients with an adequate, fully consented DNA sample had available clinical data for these phenotypes.

DQA1*0201/DQB1*0201g = assay: ALT case/non-case association with DQ2.2 serotype allele combinations, confirmatory study; type: in vivo, human
Procedure: (§1) Genetic markers selected for confirmatory were required to achieve pre-defined p-value thresholds in the exploratory analysis of p≦0.05 for HLA markers, p≦0.01 for candidate gene markers and p≦10-4 for whole genome screen SNPs. For markers confirmed at p≦0.01, measures of potential clinical utility were evaluated. An allele or genotype(s) was designated which conferred a higher risk of ALT elevation and this was compared to the non-risk allele(s)/genotype(s) and the odds ratio (OR), positive predictive value (PPV), and negative predictive value (NPV) calculated.
HLA Class II peptides form heterodimer proteins where DQA1/DQB1 and DRA/DRB1 combinations create discrete antigen binding sites (Jones E Y, et al. Nature Reviews: Immunology 2006; 6; 271-282). HLA-DRA is functionally monomorphic and no further marker discrimination can be gained by evaluating specific allelic combinations. In contrast, both DQA1*0201 and DQB1*0202 are polymorphic.

HLA-B*4403 = conditions: matched case-control
Procedure: (§5) The two phenotypes that were evaluated were maximum on-treatment liver chemistry values for ALT and TBL with respect to the upper limit of normal. These phenotypes were evaluated separately in case-control and quantitative trait analyses and jointly in a combined case-control analysis. ALT and TBL cases were defined as maximum on-treatment elevations of ≧3×ULN and ≧1.5×ULN, respectively, and control subjects were defined as maximum on-treatment ALT or TBL of ≦1×ULN. Approximately 950 patients with an adequate, fully consented DNA sample had available clinical data for these phenotypes. After subject genotyping quality control was completed, a total of 947 patients remained for pharmacogenetic analyses on at least one genetic variant.
(§6) Evaluation of HLA genes focused on a subset of the total number of patients consisting of all ALT cases (N=47) and matched controls (N=47).

HLA-DRB1*0701 [1] = tested on: HLA-DRB1*0701
Procedure: as §5, §6

HLA-DQA1*0201 = conditions: for HLA-DQA1*0201 Carrier: Non Cases (number) / HLA-DQA1*0201 Non-Carrier: Non Cases (number) / HLA-DQA1*0201 Carrier: Cases (number) / HLA-DQA1*0201 Non-Carrier: Cases (number) / NPV (CI) / OR (CI) / PPV (CI): confirmatory cohort; for NPV (CI) / OR (CI) / PPV (CI): HLA-DQA1*0201 carriage, cases vs non-cases
Procedure: (§2) The two phenotypes that were evaluated were maximum on-treatment liver chemistry values for ALT and TBL with respect to the upper limit of normal. These phenotypes were evaluated in both case-control and quantitative trait analyses while key associations were examined qualitatively in the combined ALT/TBL cases. ALT and TBL cases were defined as maximum on-treatment elevations of ≧3×ULN and ≧1.5×ULN, respectively, and control subjects were defined as maximum on-treatment ALT or TBL of ≦1×ULN. […] Approximately 370 patients with an adequate, fully consented DNA sample had available clinical data for these phenotypes.
(§3) Germline DNA was extracted from peripheral blood (QiAmp DNA Blood Kit, Qiagen, Valencia, Calif.). This study evaluated candidate gene and genome-wide screening, performed in parallel, to detect case-control association signals in the exploratory cohort. Class I and II HLA genes (seven genes to 4-digit and three genes to 2-digit resolution) were typed by Laboratory Corporation of America (Burlington, N.C.) and Histogenetics (Ossining, N.Y.), or at GSK using the LABType® SSO Typing Test (One Lambda, Canoga Park, Calif.). […] Whole genome screen genotyping on the Illumina Human 1M-Duo platform was also conducted (Expression Analysis, Durham, N.C.).
(§4) For the exploratory study, initial analysis of the GWAS was done using logistic regression, carried out in PLINK (Purcell S, et al. American Journal of Human Genetics 2007; 81, 559-575) using the genotypic test option when three genotype classes were observed, or the additive test option when only two genotype classes were observed. […] In addition to the genotype term, all models included baseline ALT xULN, treatment group (for the exploratory study), and a sufficient number of principal components to account for potential confounding by population structure. Principal components were obtained from EIGENSOFT (Patterson N. et al. PLoS Genetics 2006; 2: e190), using study subjects and HapMap founders.
as §1

HLA-DQB1*0202 = tested on: HLA-DQB1*0202
Procedure: as §2, §3, §4, §1

HLA-DRB1*0701 [2] = tested on: HLA-DRB1*0701; remark: listed apart in the source
Procedure: as §2, §3, §4, §1

[3] = cancer patients receiving lapatinib; cited from earlier work
[4] = On-treatment liver chemistry (ALT, TBL, ALP), exploratory study PGx population, twelve AMBC trials
[5] = DQA1*0201/DQB1*0201g carriage, cases vs non-cases, ALT > 3 xULN, Confirmatory study
[6] = DQA1*0201/DQB1*0201g, ALT > 3 xULN threshold, Confirmatory study
[7] = restricted baseline (ALT and TBL <=1xULN at baseline)
[8] = unrestricted baseline (ALT and/or TBL >1xULN at baseline)
[9] = DQB1*0202 carriage, ALT cases, Confirmatory study
[10] = DQB1*0202 carriage, ALT controls, Confirmatory study
[11] = DRB1*0701 carriage, ALT cases, Confirmatory study
[12] = DRB1*0701 carriage, ALT controls, Confirmatory study
[13] = Exploratory Study ALT Cases (N=37)
[14] = Exploratory Study ALT Cases with HLA Data Available, at time of maximum ALT
[15] = Exploratory Study ALT Controls (N=286)
[16] = Exploratory Study PGx Population (12 trials, N=901), lapatinib monotherapy or combinations
[17] = Exploratory Study PGx Population (N=901)

## CS(=O)(=O)CCNCc1ccc(-c2ccc3ncnc(Nc4ccc(OCc5cccc(F)c5)c(Cl)c4)c3c2)o1 [lapatinib, N-(3 chloro-4-{[(3-fluorophenyl)methyl]oxy}phenyl)-6-[5-({[2 (methylsulfonyl)ethyl]amino}methyl)-2-furanyl]-4-quinazolinamine bis(4 methylbenzenesulfonate)monohydrate]
UGT1A1*28; TBL cases >=1.5xULN (n=21)
  TBL cases carrying TA7/TA7 genotype: 33%
UGT1A1*28; controls (n=226)
  TBL controls carrying TA7/TA7 genotype: 4%
DQA1*0201/DQB1*0201g; DQA1*0201/DQB1*0201g (DQ2.2 serotype), ALT Cases > 3 xULN, Confirmatory study
  HLA Carrier: Cases (number): 17
DQA1*0201/DQB1*0201g; [5]
  NPV (CI): 0.976 (0.951, 0.990)
  OR (CI): 10.2 (3.8, 30.0)
  PPV (CI): 0.20 (0.12, 0.30)
DQA1*0201/DQB1*0201g; [6]
  HLA Carrier: Non Cases (number): 67
  HLA Non-Carrier: Non Cases (number): 281
DQA1*0201/DQB1*0201g; DQA1*0201/DQB1*0201g, ALT Cases > 3 xULN, Confirmatory study
  HLA Non-Carrier: Cases (number): 7
DQA1*0201/DQB1*0201g; confirmatory study (17/24)
  DQA1*0201/DQB1*0201g allele combinations in ALT cases: 71%
DQA1*0201/DQB1*0201g; confirmatory study (67/348)
  DQA1*0201/DQB1*0201g allele combinations in non-cases: 19%
HLA-B*4403; 47 cases
  ALT cases carrying one copy of HLA-B*4403: Twenty three
HLA-B*4403; 47 controls
  ALT controls carrying one copy of HLA-B*4403: 6%
HLA-DRB1*0701 [1]; exploratory, 4/13 combined cases, HLA-DRB1*0701 or HLA-B*4403
  combined ALT/TBL cases with at least one of the significant HLA alleles: 31%
HLA-DRB1*0701 [1]; matched case-control, 47 cases
  ALT cases with at least one copy of HLA-DRB1*0701: 40%
HLA-DRB1*0701 [1]; matched case-control, 47 controls
  ALT controls with at least one copy of HLA-DRB1*0701: 13%
HLA-DQA1*0201; ALT Cases > 3 xULN threshold
  HLA-DQA1*0201 Carrier: Non Cases (number): 82
  HLA-DQA1*0201 Non-Carrier: Non Cases (number): 268
HLA-DQA1*0201; ALT Cases > 3 xULN
  HLA-DQA1*0201 Carrier: Cases (number): 17
  HLA-DQA1*0201 Non-Carrier: Cases (number): 7
HLA-DQA1*0201; ALT Cases > 5 xULN threshold
  HLA-DQA1*0201 Carrier: Non Cases (number): 90
  HLA-DQA1*0201 Non-Carrier: Non Cases (number): 272
HLA-DQA1*0201; ALT Cases > 5 xULN
  HLA-DQA1*0201 Carrier: Cases (number): 9
  HLA-DQA1*0201 Non-Carrier: Cases (number): 3
HLA-DQA1*0201; ALT Cases > 8 xULN threshold
  HLA-DQA1*0201 Carrier: Non Cases (number): 93
  HLA-DQA1*0201 Non-Carrier: Non Cases (number): 274
HLA-DQA1*0201; ALT Cases > 8 xULN
  HLA-DQA1*0201 Carrier: Cases (number): 6
  HLA-DQA1*0201 Non-Carrier: Cases (number): 1
HLA-DQA1*0201; Confirmatory Study ALT Cases
  % that carry DQA1*0201, Hepatocellular: 83%
  % that carry DQA1*0201, Mixed: 78%
  N that carry DQA1*0201, Cholestatic: 0
  N that carry DQA1*0201, Hepatocellular: 10
  N that carry DQA1*0201, Mixed: 7
HLA-DQA1*0201; DQA1*0201 carriage, ALT cases (>3xULN), Confirmatory study, lapatinib plus letrozole
  Carriage: cases (n/N): 17/24
HLA-DQA1*0201; DQA1*0201 carriage, ALT controls, Confirmatory study, lapatinib plus letrozole
  Carriage: controls (n/N): 33/155
HLA-DQA1*0201; Example 1A analysis: HLA-DQA1*0201, ALT cases vs all non-case subjects, 95% CI 0.11-0.27
  PPV: 0.18
HLA-DQA1*0201; Example 1A analysis: HLA-DQA1*0201, ALT cases vs all non-case subjects, 95% CI 0.95-0.99
  NPV: 0.97
HLA-DQA1*0201; ALT > 3 xULN
  NPV (CI): 0.97 (0.95, 0.99) and 0.975 (0.948, 0.990)
  OR (CI): 7.9 (3.0, 23.3)
  PPV (CI): 0.17 (0.10, 0.26)
HLA-DQA1*0201; ALT > 5 xULN
  NPV (CI): 0.99 (0.97, 0.9977)
  OR (CI): 9.1 (2.2, 52.8)
  PPV (CI): 0.09 (0.04, 0.17)
HLA-DQA1*0201; ALT > 8 xULN
  NPV (CI): 0.9964 (0.98, 0.9999)
  OR (CI): 17.7 (2.1, 816)
  PPV (CI): 0.06 (0.02, 0.13)
HLA-DQA1*0201; confirmatory study (82/350)
  DQA1*0201 alone carriage in non-cases: 23%
HLA-DQA1*0201; lapatinib plus letrozole treated patients, FIG. 3
  cumulative incidence of ALT elevation, DQA1*0201 carriers compared with non-carriers: higher
HLA-DQA1*0201; lapatinib plus letrozole treated patients, confirmatory study
  reduction of the rate of ALT elevation on removal of DQA1*0201 carriers: more than two-thirds
HLA-DQA1*0201; of eleven cases that provided DNA
  hepatobiliary adverse event cases carrying the DQA1*0201 allele, number: six
HLA-DQA1*0201; [7]
  combined ALT/TBL cases that were HLA-DQA1*0201 carriers: 6/6
HLA-DQA1*0201; [8]
  combined ALT/TBL cases that were HLA-DQA1*0201 carriers: 1/6
HLA-DQB1*0202; [9]
  Carriage: cases (%): (63%)
  Carriage: cases (n/N): 15/24
HLA-DQB1*0202; [10]
  Carriage: controls (%): (19%)
  Carriage: controls (n/N): 30/155
HLA-DQB1*0202; [7]
  combined ALT/TBL cases that carried HLA-DQB1*0202: 5/6
HLA-DQB1*0202; [8]
  combined ALT/TBL cases that were HLA-DQB1*0202 carriers: 1/6
HLA-DRB1*0701 [2]; [11]
  Carriage: cases (%): (67%)
  Carriage: cases (n/N): 16/24
HLA-DRB1*0701 [2]; [12]
  Carriage: controls (%): (23%)
  Carriage: controls (n/N): 35/155
HLA-DRB1*0701 [2]; [7]
  combined ALT/TBL cases that were HLA-DRB1*0701 carriers: 6/6
HLA-DRB1*0701 [2]; [8]
  combined ALT/TBL cases that were HLA-DRB1*0701 carriers: 1/6
[3]
  Grade 3 ALT elevation (Common Toxicity Criteria for Adverse Events, v4.0), patients affected: 1.6%
  Hy's Rule events, patients affected: 0.2%
[4]; [13]
  Maximum on treatment ALT xULN: Mean(SD): 6.47(6.57) xULN
  Maximum on treatment ALT xULN: Median: 4.70 xULN
[4]; [14]
  N of ALT cases with Cholestatic injury type: 4
  N of ALT cases with Hepatocellular injury type: 21
  N of ALT cases with Mixed injury type: 10
[4]; [15]
  Maximum on treatment ALT xULN: Mean(SD): 0.59(0.21) xULN
  Maximum on treatment ALT xULN: Median: 0.59 xULN
[4]; [16]
  Maximum on treatment ALT xULN: Mean(SD): 1.29 (1.96) xULN
  Maximum on treatment ALT xULN: Median: 0.80 xULN
[4]; [17]
  Maximum on treatment ALP xULN: Mean(SD): 1.34 (1.40) xULN
  Maximum on treatment ALP xULN: Median: 0.91 xULN
  Maximum on treatment ALT > 3 xULN (%): 7.3%
  Maximum on treatment ALT > 5 xULN (%): 2.7%
  Maximum on treatment ALT > 8 xULN (%): 1.0%
  Maximum on treatment TBL xULN: Median: 0.68 xULN
